Reference: ChEMBL document CHEMBL3526033, “Identification of human liver cytochrome P450 enzymes involved in the metabolism of SCH 530348 (Vorapaxar), a potent oral thrombin protease-activated receptor 1 antagonist” (Drug Metab Dispos, 2011)
One block for each molecule: values may come before it.

Experiments:
[1] = target: Cytochrome P450 2C8 (Homo sapiens, UniProt P10632); experiment: Activity of human recombinant CYP2C8 assessed as enzyme-mediated 2-hydroxyethyl (1R,3aR,4aR,6R,8aR,9S,9aS)-9-((E)-2-(5-(3-fluorophenyl)pyridin-2-yl)vinyl)-1-methyl-3-oxododecahydronaphtho[2,3-c]furan-6-ylcarbamate formation at 25 uM after 120 mins by LC-MS/MS analysis in presence of NADPH; format: ADME; conditions: 2 h
Cytochrome P450 2C8, sequence (P10632 whole entry): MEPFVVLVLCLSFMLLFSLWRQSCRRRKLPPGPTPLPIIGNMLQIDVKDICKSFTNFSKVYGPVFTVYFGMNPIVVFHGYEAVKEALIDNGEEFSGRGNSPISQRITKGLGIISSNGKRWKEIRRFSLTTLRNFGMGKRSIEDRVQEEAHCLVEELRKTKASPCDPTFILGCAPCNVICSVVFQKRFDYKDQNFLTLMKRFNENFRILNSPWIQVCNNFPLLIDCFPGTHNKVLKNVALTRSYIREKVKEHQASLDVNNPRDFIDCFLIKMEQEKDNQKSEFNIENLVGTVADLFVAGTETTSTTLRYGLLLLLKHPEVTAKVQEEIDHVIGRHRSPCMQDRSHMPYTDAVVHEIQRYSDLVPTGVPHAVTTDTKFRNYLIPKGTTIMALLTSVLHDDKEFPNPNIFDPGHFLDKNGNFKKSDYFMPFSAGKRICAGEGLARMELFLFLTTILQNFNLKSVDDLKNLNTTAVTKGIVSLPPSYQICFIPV

[2] = target: T1, Cytochrome P450 2C19 (Homo sapiens, UniProt P33261); experiment: Activity of human recombinant CYP2C19 assessed as enzyme-mediated 2-hydroxyethyl (1R,3aR,4aR,6R,8aR,9S,9aS)-9-((E)-2-(5-(3-fluorophenyl)pyridin-2-yl)vinyl)-1-methyl-3-oxododecahydronaphtho[2,3-c]furan-6-ylcarbamate formation at 25 uM after 120 mins by LC-MS/MS analysis in presence of NADPH; format: ADME; conditions: 2 h
T1 sequence (P33261 whole entry): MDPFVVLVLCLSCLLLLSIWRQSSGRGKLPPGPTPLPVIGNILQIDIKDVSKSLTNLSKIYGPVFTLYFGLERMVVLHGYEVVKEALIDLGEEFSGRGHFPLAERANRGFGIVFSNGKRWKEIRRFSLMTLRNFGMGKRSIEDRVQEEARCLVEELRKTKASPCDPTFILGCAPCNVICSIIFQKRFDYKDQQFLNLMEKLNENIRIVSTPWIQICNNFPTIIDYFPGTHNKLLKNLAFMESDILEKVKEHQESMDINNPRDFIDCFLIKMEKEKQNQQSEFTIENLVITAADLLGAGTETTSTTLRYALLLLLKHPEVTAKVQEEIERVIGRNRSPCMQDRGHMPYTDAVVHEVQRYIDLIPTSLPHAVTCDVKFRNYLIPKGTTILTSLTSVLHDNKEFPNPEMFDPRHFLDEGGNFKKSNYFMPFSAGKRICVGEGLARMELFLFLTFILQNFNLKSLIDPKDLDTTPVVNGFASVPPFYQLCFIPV

[3] = target: T1, Cytochrome P450 2C19; experiment: Activity of human recombinant CYP2C19 assessed as enzyme-mediated drug metabolism treated with 25 uM vorapaxar after 120 mins by LC-MS/MS analysis in presence of NADPH; format: ADME; conditions: 2 h
[4] = target: T2, Cytochrome P450 4F3 (Homo sapiens, UniProt Q08477); experiment: Activity of human recombinant CYP4F3A assessed as enzyme-mediated drug metabolism treated with 25 uM vorapaxar after 120 mins by LC-MS/MS analysis in presence of NADPH; format: ADME; conditions: 2 h
T2 sequence (Q08477 whole entry): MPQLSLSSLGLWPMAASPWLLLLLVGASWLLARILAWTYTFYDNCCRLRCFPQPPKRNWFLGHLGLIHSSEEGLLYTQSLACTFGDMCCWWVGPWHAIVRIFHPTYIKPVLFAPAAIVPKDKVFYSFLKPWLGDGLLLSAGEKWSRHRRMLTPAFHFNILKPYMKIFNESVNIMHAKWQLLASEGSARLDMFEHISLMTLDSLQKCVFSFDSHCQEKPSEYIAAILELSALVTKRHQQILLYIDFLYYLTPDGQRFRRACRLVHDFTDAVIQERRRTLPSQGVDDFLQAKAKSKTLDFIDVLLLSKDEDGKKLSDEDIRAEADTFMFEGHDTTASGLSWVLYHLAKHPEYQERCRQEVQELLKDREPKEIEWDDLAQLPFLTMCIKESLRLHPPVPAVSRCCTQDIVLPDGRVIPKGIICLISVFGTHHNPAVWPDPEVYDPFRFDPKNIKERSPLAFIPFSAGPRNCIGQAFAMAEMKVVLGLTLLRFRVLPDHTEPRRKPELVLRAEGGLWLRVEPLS

[5] = system: Liver microsome; experiment: Drug metabolism in human liver microsomes assessed as (3R,3aS,4S,4aR,7R,8aR,9aR)-7-amino-4-((E)-2-(5-(3-fluorophenyl)pyridin-2-yl)vinyl)-3-methyldecahydronaphtho[2,3-c]furan-1(3H)-one formation at 10 to 25 uM after 120 mins by LC-MS/MS analysis in presence of sulfaphenazole; format: ADME; conditions: 2 h
[6] = system: Liver microsome; experiment: Drug metabolism in human liver microsomes overexpressing CYP3A4 assessed as (3R,3aS,4S,4aR,7R,8aR,9aR)-7-amino-4-((E)-2-(5-(3-fluorophenyl)pyridin-2-yl)vinyl)-3-methyldecahydronaphtho[2,3-c]furan-1(3H)-one formation at 25 uM after 120 mins by LC-MS/MS analysis in presence of tranylcypromine; format: ADME; conditions: 2 h
[7] = Drug metabolism in insect microsomes at 10 uM after 120 mins by LC-MS/MS analysis in presence of NADPH; format: ADME, Microsome; conditions: read-out: Compound recovery
[8] = target: CYP1A2 (Homo sapiens, UniProt P05177); experiment: Activity of human recombinant CYP1A2 assessed as enzyme-mediated drug metabolism at 10 uM after 120 mins by LC-MS/MS analysis in presence of NADPH; format: ADME; conditions: read-out: Compound recovery
CYP1A2, sequence (P05177 whole entry): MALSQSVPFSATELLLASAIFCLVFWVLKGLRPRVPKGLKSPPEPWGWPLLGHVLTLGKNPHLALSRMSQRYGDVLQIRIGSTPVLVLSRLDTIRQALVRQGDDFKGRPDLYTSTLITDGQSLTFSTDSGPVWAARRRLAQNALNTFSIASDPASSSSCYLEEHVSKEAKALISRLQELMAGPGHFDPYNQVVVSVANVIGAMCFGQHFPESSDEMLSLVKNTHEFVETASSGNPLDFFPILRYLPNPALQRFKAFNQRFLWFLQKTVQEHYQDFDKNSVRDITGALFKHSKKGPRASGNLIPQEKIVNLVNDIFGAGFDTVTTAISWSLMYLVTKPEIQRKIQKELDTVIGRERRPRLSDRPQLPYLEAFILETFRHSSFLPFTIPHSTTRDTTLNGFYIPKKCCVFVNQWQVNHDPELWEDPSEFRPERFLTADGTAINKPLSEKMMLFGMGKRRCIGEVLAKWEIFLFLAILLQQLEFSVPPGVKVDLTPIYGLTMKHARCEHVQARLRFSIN

[9] = system: Liver microsome; experiment: Drug metabolism in human liver microsomes assessed as 2-hydroxyethyl (1R,3aR,4aR,6R,8aR,9S,9aS)-9-((E)-2-(5-(3-fluorophenyl)pyridin-2-yl)vinyl)-1-methyl-3-oxododecahydronaphtho[2,3-c]furan-6-ylcarbamate formation at 25 uM after 120 mins by LC-MS/MS analysis in presence of astemizole; format: ADME; conditions: 2 h
[10] = system: Liver microsome; experiment: Drug metabolism in human liver microsomes assessed as (3R,3aS,4S,4aR,7R,8aR,9aR)-7-amino-4-((E)-2-(5-(3-fluorophenyl)pyridin-2-yl)vinyl)-3-methyldecahydronaphtho[2,3-c]furan-1(3H)-one formation at 10 to 25 uM after 120 mins by LC-MS/MS analysis in presence of tranylcypromine; format: ADME; conditions: 2 h

Drug metabolism [1]: metabolite_detected
Drug metabolism [2]: metabolite_detected
Compound: CCOC(=O)N[C@@H]1CC[C@@H]2[C@@H](C1)C[C@H]1C(=O)O[C@H](C)[C@H]1[C@H]2/C=[14CH]/c1ccc(-c2cccc(F)c2)cn1

Drug metabolism [3]: metabolite_detected
Drug metabolism [4]: metabolite_detected
Compound: C[C@H]1OC(=O)[C@@H]2C[C@@H]3C[C@H](NC(=O)OCCO)CC[C@H]3[C@H](/C=C/c3ccc(-c4cccc(F)c4)cn3)[C@H]12

Drug metabolism [5]: metabolite_detected
Drug metabolism [6]: metabolite_not_detected
remaining at 2 h, 10 µM [7]: 98.7%
remaining at 2 h, 10 µM [8]: 98.3%
Drug metabolism [9]: metabolite_not_detected
Drug metabolism [10]: metabolite_not_detected
Compound: CCOC(=O)N[C@@H]1CC[C@@H]2[C@@H](C1)C[C@H]1C(=O)O[C@H](C)[C@H]1[C@H]2/C=C/c1ccc(-c2cccc(F)c2)cn1 [VORAPAXAR]
